{
  "source": "patent US10167262B2",
  "about": "“Herbicidal substituted 3-arylpyrazoles” (FMC CORPORATION, priority 2014, dated 2019)",
  "type_in_all_cases": "in vivo",
  "key": {"[1]": {"tested_on": "canarygrass (Phalaris minor)", "experiment": "Test C postemergence greenhouse test, plant response rating 0-100", "outline": "(§1)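 Potted in peat/vermiculite mix; postemergence application at 1–4 leaves (2–18 cm); greenhouse 13–15 d; visual score 0–100 relative to untreated plants; dash = no test result.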"}, "[2]": {"tested_on": "cocklebur (common cocklebur, Xanthium strumarium)", "experiment": "Test C postemergence greenhouse test, plant response rating 0-100", "outline": "as §1"}, "[3]": {"tested_on": "deadnettle (henbit deadnettle, Lamium amplexicaule)", "experiment": "Test C postemergence greenhouse test, plant response rating 0-100", "outline": "as §1"}, "[4]": {"tested_on": "goosegrass (Eleusine indica)", "experiment": "Test C postemergence greenhouse test, plant response rating 0-100", "outline": "as §1"}, "[5]": {"tested_on": "woolly cupgrass (Eriochloa villosa)", "experiment": "Test C postemergence greenhouse test, plant response rating 0-100", "outline": "as §1"}, "[6]": {"tested_on": "barnyardgrass (Echinochloa crus-galli)", "experiment": "Test E pre-/postemergence greenhouse test, plant response rating 0-100", "settings": "scale 0 to 100; for Barnyardgrass plant response rating: Preemergence; for Plant response rating, Barnyardgrass: Postemergence", "outline": "(§2)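 Sow seeds in silt loam and treat preemergence; at the same time, spray postemergence on 1- to 4-leaf plants in peat/vermiculite mix. Use a non-phytotoxic solvent plus surfactant as carrier. Hold 14–21 days in greenhouse, then score visually 0–100 against controls.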"}, "[7]": {"tested_on": "sandbur (southern sandbur, Cenchrus echinatus)", "experiment": "Test E pre-/postemergence greenhouse test, plant response rating 0-100", "settings": "scale 0 to 100; for Sandbur plant response rating: Preemergence; for Plant response rating, Sandbur: Postemergence", "outline": "as §2"}, "soybean (Glycine max)": {"tested_on": "soybean (Glycine max)", "experiment": "Test E pre-/postemergence greenhouse test, plant response rating 0-100", "settings": "scale 0 to 100; for Soybean plant response rating: Preemergence; for Plant response rating, Soybean: Postemergence", "outline": "as §2"}},
  "data": [
    {"smiles": "CCn1cc(C(=O)c2ccccc2)c(-c2cc(Cl)cc(Cl)c2)n1", "note": "[Compound 31, [3-(3,5-dichlorophenyl)-1-ethyl-1H-pyrazol-4-yl]phenylmethanone]", "values": [
      {"measurement": "Plant response rating, Canarygrass", "setting": "[1]; 16 g ai/ha", "result": 0},
      {"measurement": "Plant response rating (0 to 100), Canarygrass", "setting": "[1]; 31 g ai/ha", "result": 0},
      {"measurement": "Plant response rating (0 to 100), Canarygrass", "setting": "[1]; 62 g ai/ha", "result": 0},
      {"measurement": "Plant response rating (0 to 100), Canarygrass", "setting": "[1]; 125 g ai/ha", "result": 0},
      {"measurement": "Plant response rating, Cocklebur", "setting": "[2]; 16 g ai/ha", "result": 10},
      {"measurement": "Plant response rating (0 to 100), Cocklebur", "setting": "[2]; 31 g ai/ha", "result": 20},
      {"measurement": "Plant response rating (0 to 100), Cocklebur", "setting": "[2]; 62 g ai/ha", "result": 20},
      {"measurement": "Plant response rating (0 to 100), Cocklebur", "setting": "[2]; 125 g ai/ha", "result": 25},
      {"measurement": "Plant response rating, Deadnettle", "setting": "[3]; 16 g ai/ha", "result": 0},
      {"measurement": "Plant response rating (0 to 100), Deadnettle", "setting": "[3]; 31 g ai/ha", "result": 0},
      {"measurement": "Plant response rating (0 to 100), Deadnettle", "setting": "[3]; 62 g ai/ha", "result": 0},
      {"measurement": "Plant response rating (0 to 100), Deadnettle", "setting": "[3]; 125 g ai/ha", "result": 10},
      {"measurement": "Plant response rating, Goosegrass", "setting": "[4]; 16 g ai/ha", "result": 0},
      {"measurement": "Plant response rating (0 to 100), Goosegrass", "setting": "[4]; 31 g ai/ha", "result": 0},
      {"measurement": "Plant response rating (0 to 100), Goosegrass", "setting": "[4]; 62 g ai/ha", "result": 0},
      {"measurement": "Plant response rating (0 to 100), Goosegrass", "setting": "[4]; 125 g ai/ha", "result": 0},
      {"measurement": "Plant response rating, Cupgrass, Woolly", "setting": "[5]; 16 g ai/ha", "result": 5},
      {"measurement": "Plant response rating (0 to 100), Cupgrass, Woolly", "setting": "[5]; 31 g ai/ha", "result": 5},
      {"measurement": "Plant response rating (0 to 100), Cupgrass, Woolly", "setting": "[5]; 62 g ai/ha", "result": 5},
      {"measurement": "Plant response rating (0 to 100), Cupgrass, Woolly", "setting": "[5]; 125 g ai/ha", "result": 5},
      {"measurement": "Barnyardgrass plant response rating", "setting": "[6]; 62 g ai/ha", "result": 0},
      {"measurement": "Barnyardgrass plant response rating", "setting": "[6]; 125 g ai/ha", "result": 0},
      {"measurement": "Barnyardgrass plant response rating", "setting": "[6]; 250 g ai/ha", "result": 0},
      {"measurement": "Barnyardgrass plant response rating", "setting": "[6]; 500 g ai/ha", "result": 0},
      {"measurement": "Sandbur plant response rating", "setting": "[7]; 62 g ai/ha", "result": 0},
      {"measurement": "Sandbur plant response rating", "setting": "[7]; 125 g ai/ha", "result": 0},
      {"measurement": "Sandbur plant response rating", "setting": "[7]; 250 g ai/ha", "result": 0},
      {"measurement": "Sandbur plant response rating", "setting": "[7]; 500 g ai/ha", "result": 0},
      {"measurement": "Soybean plant response rating", "setting": "soybean (Glycine max); 62 g ai/ha", "result": 0},
      {"measurement": "Soybean plant response rating", "setting": "soybean (Glycine max); 125 g ai/ha", "result": 0},
      {"measurement": "Soybean plant response rating", "setting": "soybean (Glycine max); 250 g ai/ha", "result": 0},
      {"measurement": "Soybean plant response rating", "setting": "soybean (Glycine max); 500 g ai/ha", "result": 0}
    ]},
    {"smiles": "Fc1ccc(NN=C(c2ccccc2)c2c[nH]nc2-c2cc(Cl)cc(Cl)c2)cc1", "note": "[Compound 35]", "values": [
      {"measurement": "Plant response rating (0 to 100), Canarygrass", "setting": "[1]; 62 g ai/ha", "result": 0},
      {"measurement": "Plant response rating (0 to 100), Canarygrass", "setting": "[1]; 125 g ai/ha", "result": 0},
      {"measurement": "Plant response rating, Canarygrass", "setting": "[1]; 250 g ai/ha, scale 0 to 100", "result": 0},
      {"measurement": "Plant response rating, Canarygrass", "setting": "[1]; 500 g ai/ha, scale 0 to 100", "result": 0},
      {"measurement": "Plant response rating (0 to 100), Cocklebur", "setting": "[2]; 62 g ai/ha", "result": 60},
      {"measurement": "Plant response rating (0 to 100), Cocklebur", "setting": "[2]; 125 g ai/ha", "result": 60},
      {"measurement": "Plant response rating, Cocklebur", "setting": "[2]; 250 g ai/ha, scale 0 to 100", "result": 75},
      {"measurement": "Plant response rating, Cocklebur", "setting": "[2]; 500 g ai/ha, scale 0 to 100", "result": 75},
      {"measurement": "Plant response rating (0 to 100), Deadnettle", "setting": "[3]; 62 g ai/ha", "result": 0},
      {"measurement": "Plant response rating (0 to 100), Deadnettle", "setting": "[3]; 125 g ai/ha", "result": 0},
      {"measurement": "Plant response rating, Deadnettle", "setting": "[3]; 250 g ai/ha, scale 0 to 100", "result": 0},
      {"measurement": "Plant response rating, Deadnettle", "setting": "[3]; 500 g ai/ha, scale 0 to 100", "result": 0},
      {"measurement": "Plant response rating (0 to 100), Goosegrass", "setting": "[4]; 62 g ai/ha", "result": 0},
      {"measurement": "Plant response rating (0 to 100), Goosegrass", "setting": "[4]; 125 g ai/ha", "result": 0},
      {"measurement": "Plant response rating, Goosegrass", "setting": "[4]; 250 g ai/ha, scale 0 to 100", "result": 0},
      {"measurement": "Plant response rating, Goosegrass", "setting": "[4]; 500 g ai/ha, scale 0 to 100", "result": 0},
      {"measurement": "Plant response rating (0 to 100), Cupgrass, Woolly", "setting": "[5]; 62 g ai/ha", "result": 5},
      {"measurement": "Plant response rating (0 to 100), Cupgrass, Woolly", "setting": "[5]; 125 g ai/ha", "result": 5},
      {"measurement": "Plant response rating, Cupgrass, Woolly", "setting": "[5]; 250 g ai/ha, scale 0 to 100", "result": 5},
      {"measurement": "Plant response rating, Cupgrass, Woolly", "setting": "[5]; 500 g ai/ha, scale 0 to 100", "result": 5},
      {"measurement": "Plant response rating, Barnyardgrass", "setting": "[6]; 31 g ai/ha", "result": 0},
      {"measurement": "Plant response rating, Barnyardgrass", "setting": "[6]; 62 g ai/ha", "result": 0},
      {"measurement": "Plant response rating, Barnyardgrass", "setting": "[6]; 125 g ai/ha", "result": 0},
      {"measurement": "Plant response rating, Barnyardgrass", "setting": "[6]; 250 g ai/ha", "result": 0},
      {"measurement": "Plant response rating, Barnyardgrass", "setting": "[6]; 500 g ai/ha", "result": 0},
      {"measurement": "Plant response rating, Sandbur", "setting": "[7]; 31 g ai/ha", "result": 0},
      {"measurement": "Plant response rating, Sandbur", "setting": "[7]; 62 g ai/ha", "result": 0},
      {"measurement": "Plant response rating, Sandbur", "setting": "[7]; 125 g ai/ha", "result": 0},
      {"measurement": "Plant response rating, Sandbur", "setting": "[7]; 250 g ai/ha", "result": 0},
      {"measurement": "Plant response rating, Sandbur", "setting": "[7]; 500 g ai/ha", "result": 0},
      {"measurement": "Plant response rating, Soybean", "setting": "soybean (Glycine max); 31 g ai/ha", "result": 0},
      {"measurement": "Plant response rating, Soybean", "setting": "soybean (Glycine max); 62 g ai/ha", "result": 0},
      {"measurement": "Plant response rating, Soybean", "setting": "soybean (Glycine max); 125 g ai/ha", "result": 0},
      {"measurement": "Plant response rating, Soybean", "setting": "soybean (Glycine max); 250 g ai/ha", "result": 0},
      {"measurement": "Plant response rating, Soybean", "setting": "soybean (Glycine max); 500 g ai/ha", "result": 0}
    ]}
  ]
}
